# In patent publication EP0923292B1, “IMPROVED METHOD FOR SYSTEMIC ADMINISTRATION OF 2,4-DIENOIC ACID-TYPE INSECTICIDES TO TERRESTRIAL MAMMALS” (priority 1996, dated 1998):
# Assay: Concentration of (S)-methoprene on dog hair following oral administration (HPLC)
# Type: in vivo, dogs
# Conditions: oral 50 mg/kg one time on Day 0; for concentration at 17 day / concentration at 21 day / concentration at 1 day / concentration at 3 day / concentration at 5 day / concentration at 7 day / concentration at 10 day / concentration at 14 day / concentration at 28 day: dog, hair, po, 50 mg/kg; for concentration at 1 day: day 1
# Description: Twelve random-bred adult dogs of various sex and medium hair coat were selected based on hair coat, health, and individual habits. The twelve dogs were grouped into two groups of six dogs each. Dog weights ranged from 22.5 kg to 35.0 kg, and the various weights and each sex were represented in each group. The dogs received a measured amount of Science Diet maintenance dog food daily and water was available. The two groups of dogs were housed separately. The dogs of Group 1 were not given any treatments, whereas those of Group 2 were each given 50 mg/kg of technical (S)-methoprene one time only at the start of the study (Day 0).
# Blood samples were taken periodically by drawing the samples into 10 cc disposable syringes and transferring them to labeled 5 mL heparinized EDTA vacutainers treated with […] of paraoxon solution at a concentration of 1 x 10^-2 M. The blood samples were frozen until ready for analysis. Hair samples were clipped from the dogs on the same days that blood samples were taken, then placed in labeled freezer jars with aluminum foil seals, and frozen.
# To analyze the dog hair, a known weight (4-8 g) of each dog hair sample was extracted in hexane, the extract evaporated and the residue reconstituted in 2 mL of hexane. One mL of the extract was cleaned by solid-phase extraction using a 3 cc/500 mg silica cartridge. The (S)-methoprene was then eluted from the cartridge with 5% ethyl acetate/hexane. The residue was reconstituted in 1 mL acetonitrile and analyzed by reversed-phase high-pressure liquid chromatography (HPLC) on a C18 column (250 x 4.6 mm, 10-micron diameter) using diode array detection at a wavelength of 264 nm, with a mobile phase of 90:10 methanol:water at 1.5 mUmin and an injection volume of […]. The (S)-methoprene peak eluted at about 5.1 minutes. The concentration of (S)-methoprene was calculated based on a calibration curve generated by concurrently running a series of standards. The limit of quantitation was about 20 ppb.
smiles,measurement,setting,value
"COC(C)(C)CCC[C@H](C)C/C=C/C(C)=C/C(=O)OC(C)C [(S)-Methoprene, 1-isopropyl (E,E)-11-methoxy-3,7,11-trimethyl dodecadi-2,4-enoate]",Concentration of (S)-Methoprene on Dog Hair,"Dog #60, day 3","33,900 ppb"
same,Concentration of (S)-Methoprene on Dog Hair,"Dog #60, day 5","12,500 ppb"
same,Concentration of (S)-Methoprene on Dog Hair,"Dog #60, day 7","2,400 ppb"
same,Concentration of (S)-Methoprene on Dog Hair,"Dog #60, day 10","12,300 ppb"
same,Concentration of (S)-Methoprene on Dog Hair,"Dog #60, day 14","5,300 ppb"
same,Concentration of (S)-Methoprene on Dog Hair,"Dog #60, day 17","3,600 ppb"
same,Concentration of (S)-Methoprene on Dog Hair,"Dog #60, day 21","12,100 ppb"
same,Concentration of (S)-Methoprene on Dog Hair,"Dog #60, day 28","5,200 ppb"
same,concentration at 17 day,"Dog #98, day 17",345 ng/g
same,concentration at 17 day,"Dog #528, day 17",137 ng/g
same,concentration at 21 day,"Dog #528, day 21",31.2 ng/g
same,concentration at 17 day,"Dog #529, day 17",39.7 ng/g
same,concentration at 21 day,"Dog #529, day 21",93.5 ng/g
same,concentration at 17 day,"Dog #532, day 17",331 ng/g
same,concentration at 17 day,"Dog #535, day 17",1090 ng/g
same,concentration at 1 day,"random-bred, Dog #60",6000 ng/g
same,concentration at 1 day,"random-bred, Dog #98",47.4 ng/g
same,concentration at 3 day,"random-bred, Dog #98, day 3",125 ng/g
same,concentration at 5 day,"random-bred, Dog #98, day 5",161 ng/g
same,concentration at 7 day,"random-bred, Dog #98, day 7",126 ng/g
same,concentration at 10 day,"random-bred, Dog #98, day 10",167 ng/g
same,concentration at 14 day,"random-bred, Dog #98, day 14",200 ng/g
same,concentration at 21 day,"random-bred, Dog #98, day 21",231 ng/g
same,concentration at 28 day,"random-bred, Dog #98, day 28",287 ng/g
same,concentration at 1 day,"random-bred, Dog #528",76.6 ng/g
same,concentration at 3 day,"random-bred, Dog #528, day 3",199 ng/g
same,concentration at 5 day,"random-bred, Dog #528, day 5",114 ng/g
same,concentration at 7 day,"random-bred, Dog #528, day 7",150 ng/g
same,concentration at 10 day,"random-bred, Dog #528, day 10",126 ng/g
same,concentration at 14 day,"random-bred, Dog #528, day 14",103 ng/g
same,concentration at 28 day,"random-bred, Dog #528, day 28",47.2 ng/g
same,concentration at 1 day,"random-bred, Dog #529",86.6 ng/g
same,concentration at 3 day,"random-bred, Dog #529, day 3",82.2 ng/g
same,concentration at 5 day,"random-bred, Dog #529, day 5",58.3 ng/g
same,concentration at 7 day,"random-bred, Dog #529, day 7",34.5 ng/g
same,concentration at 10 day,"random-bred, Dog #529, day 10",60.5 ng/g
same,concentration at 14 day,"random-bred, Dog #529, day 14",85.5 ng/g
same,concentration at 28 day,"random-bred, Dog #529, day 28",106 ng/g
same,concentration at 3 day,"random-bred, Dog #532, day 3",62.4 ng/g
same,concentration at 5 day,"random-bred, Dog #532, day 5",98.6 ng/g
same,concentration at 7 day,"random-bred, Dog #532, day 7",117 ng/g
same,concentration at 10 day,"random-bred, Dog #532, day 10",255 ng/g
same,concentration at 14 day,"random-bred, Dog #532, day 14",350 ng/g
same,concentration at 21 day,"random-bred, Dog #532, day 21",342 ng/g
same,concentration at 28 day,"random-bred, Dog #532, day 28",230 ng/g
same,concentration at 1 day,"random-bred, Dog #535",49.3 ng/g
same,concentration at 3 day,"random-bred, Dog #535, day 3",424 ng/g
same,concentration at 5 day,"random-bred, Dog #535, day 5",276 ng/g
same,concentration at 7 day,"random-bred, Dog #535, day 7",294 ng/g
same,concentration at 10 day,"random-bred, Dog #535, day 10",681 ng/g
same,concentration at 14 day,"random-bred, Dog #535, day 14",800 ng/g
same,concentration at 21 day,"random-bred, Dog #535, day 21",675 ng/g
same,concentration at 28 day,"random-bred, Dog #535, day 28",461 ng/g
